Results on 16 compounds are retold here after US5753655A, “1-arylsulphonyl, arylcarbonyl and arylthiocarbonyl pyridazino derivatives and methods of preparation” (Ortho Pharmaceutical Corporation, priority 1996, dated 1998).

Test [1] relates to TE85 human bone cells. Briefly: Bone cell proliferation (TE85 cells). Format: cell-based. Particulars: average at 5 concentrations. The source says:
A similar method was used to measure the effect of test compounds on TE85 human bone cells.
Tables 2 and 3 show several examples of the invention with molecular formulas, melting points, and activity expressed as the average increase in bone cell proliferation at 5 concentrations (CP) or as the concentration of compound in nanomoles per liter (×10^-9 M) required to displace 50% of I^125 labeled vinyl nortestosterone (VNT) from the human bone progestin receptor (BPR) (IC50). If there is no value reported in the CP column that particular compound was not tested.

In test [2] the target is T1, rabbit uterine cytosolic progestin receptor (PR) (Oryctolagus cuniculus, UniProt P06186).
T1 construct: The high speed supernatant fraction is used as the receptor preparation; from tissue; host or cells: uterus of New Zealand rabbits, 200,000 G supernatant (cytosol)
T1 sequence (P06186 1-930): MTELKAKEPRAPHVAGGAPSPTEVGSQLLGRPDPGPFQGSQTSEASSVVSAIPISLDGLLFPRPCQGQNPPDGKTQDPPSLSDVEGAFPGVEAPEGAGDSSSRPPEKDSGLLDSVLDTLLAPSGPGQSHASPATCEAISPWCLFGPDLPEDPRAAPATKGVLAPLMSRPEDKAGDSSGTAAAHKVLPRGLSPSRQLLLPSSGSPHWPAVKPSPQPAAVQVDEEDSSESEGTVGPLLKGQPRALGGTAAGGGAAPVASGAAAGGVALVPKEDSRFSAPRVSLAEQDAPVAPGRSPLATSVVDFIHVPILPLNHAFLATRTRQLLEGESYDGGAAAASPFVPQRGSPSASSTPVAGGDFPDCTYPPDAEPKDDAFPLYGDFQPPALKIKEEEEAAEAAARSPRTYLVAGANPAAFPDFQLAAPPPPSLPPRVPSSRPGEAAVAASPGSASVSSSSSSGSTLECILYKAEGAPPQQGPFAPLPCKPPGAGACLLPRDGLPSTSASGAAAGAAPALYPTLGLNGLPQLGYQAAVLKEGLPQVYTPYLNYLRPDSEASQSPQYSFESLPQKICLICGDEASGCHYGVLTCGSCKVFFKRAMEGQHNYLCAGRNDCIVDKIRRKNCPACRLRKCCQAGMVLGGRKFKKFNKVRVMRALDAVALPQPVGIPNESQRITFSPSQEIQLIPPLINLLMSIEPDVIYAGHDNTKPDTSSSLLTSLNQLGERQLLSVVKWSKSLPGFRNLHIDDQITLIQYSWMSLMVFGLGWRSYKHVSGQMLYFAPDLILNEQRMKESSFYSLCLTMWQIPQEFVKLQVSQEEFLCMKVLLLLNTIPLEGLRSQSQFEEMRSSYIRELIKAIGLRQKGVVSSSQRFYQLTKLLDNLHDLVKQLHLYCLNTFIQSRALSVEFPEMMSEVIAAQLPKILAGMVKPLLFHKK
Briefly: Progestin Receptor Binding: competitive displacement of 3H-R5020. Set-up: species or system rabbit (New Zealand rabbits). Particulars: rabbit uterine cytosol, 4° C., 18 h, read-out: PR: concentration required to displace 50% of H3 labeled R5020 (IC50). How it is done:
Progestin Receptor Binding
The procedure used is essentially that of J. L. McGuire, C. D. Bariso and A. P. Shroff in Biochemistry 13, 319 (1974).
Uteri from New Zealand rabbits (1.5 to 2.5 kg) are placed in a cold buffer A (0.01M Tris-HCl, pH 8.0, 0.001M EDTA, 0.25M sucrose). The uteri are minced, washed and homogenized in cold buffer A. The homogenate (2 g wet tissue/mL buffer) is centrifuged at 200,000 G for 1 h at 4° C. The high speed supernatant fraction is used as the receptor preparation.
A competitive binding assay is performed by mixing ^3 H-R5020 with the receptor preparation and adding a known amount of unlabelled compound. This mixture is incubated at 4° C. for 18 h. The compounds bound to the receptor are separated from those free in solution using dextran coated charcoal and the amount of isotope bound to the receptor is determined. A depression of 20% or greater from control isotope binding is considered significant.
If there is no value reported in the T47D column that particular compound was not tested.
(In general: Displacement assays read how much labelled ligand stays bound in the presence of the test substance.)

Test [3] has as its system T47D human breast carcinoma cells. Briefly: Ex Vivo Progestational Test: 3H-thymidine incorporation into T47-D cells. Format: cell-based. The conditions noted are these: for EC50: T47D, antagonist, printed with - sign, R5020 (promegestone) induced proliferation, read-out: T47D: antagonist EC50 against R5020 induced proliferation. The procedure: Ex Vivo Progestational Test
The incorporation of ^3 H-thymidine into T47-D cells was used to test the effect of compounds on T47-D cell proliferation.
T47-D (human breast line) was used employing standard sterile techniques. Cells were maintained in RPMI 1640 medium supplemented with fetal bovine serum (10%) and insulin (0.2 I.U./ml). Cells were trypsinized and passaged using standard procedures.
Cells were plated in 96-well microtiter plates by incubation in RPMI medium (phenol red-free, insulin-free, 5% charcoal treated fetal bovine serum) at 37° C. in an atmosphere of 95% air/5% CO2. Approximately 48 hours later, spent medium was replaced by fresh medium containing test compounds dissolved in DMSO (0.1% final concentration) and the cells were incubated for approximately 22 hours. ^3 H-Thymidine was added and the incubation allowed to proceed for another 4 hours. The test was then stopped with the addition of excess unlabeled thymidine. Cells were washed free of soluble thymidine, trypsinized and harvested by standard procedures. The amount of ^3 H-thymidine incorporated into DNA was determined by liquid scintillation counting. The primary standards were promegestone, a potent synthetic progestin and RU486, an antiprogestin. Test compounds were generally screened at concentrations ranging from 0.1 to 1000 nM. A compound was considered active if it stimulated or inhibited thymidine incorporation. Results were expressed as the concentration of test compounds needed to increase proliferation 2 times over control (SC200) or the concentration needed to inhibit promegestone induced proliferation by 50% (EC50). A value less than 1000 nM was considered active.
Aspects of the application of the procedure used are described in the following: C. Christensen, D. Gunter, D. Saunders and V. Malviya, Gynecol. Oncol., 28, 25 (1987); J. Puzas, R. Drivdahl, G. Howard and D. Baylink, Proc. Soc. Exp. Biol. Med., 166, 113 (1981); and I. Keydar, L. Chen, S. Karby, F. Weiss, J. Delarea, M. Raduy, S. Chaitcik and H. Brenner, Eur. J. Cancer, 15, 659 (1979). […]

Consider `S=C(c1cc(Cl)cc(Cl)c1)N1CCC2CCCc3ccccc3C2=N1` (stereo not shown) [Example 15, 2-(3,5-dichlorothiobenzoyl)-3,4,4a,5,6,7-hexahydro-2H-benzo[6,7]cyclohepta[1,2c]pyridazine], for which the “CP: average increase in bone cell proliferation at 5 concentrations” value (shortened to “CP: average increase”) in test [1] turned out to be 109.

Take `O=C(c1ccc(F)c(F)c1)N1CCC2CCc3ccccc3C2=N1` (stereo not shown) [Example 10, 3-(3,4-difluorobenzoyl)-3,4-diazo-1,2,3,9,10,10a-hexahydrophenanthrene]: the “CP: average increase” value in test [1] came out at 112.

Consider `O=S(=O)(c1cc(Cl)ccc1Cl)N1CCC2CCc3cc(Cl)ccc3C2=N1` (stereo not shown) [Example 5, 7-Chloro-3,4-diazo-1,2,3,9,10,10a-hexahydro-3-(2,5-dichlorobenzenesulfonyl)phenanthrene], for which, in test [2], the IC50 is 34 nM. For the same compound, in test [3], the EC50 turned out to be 495 nM.

In the case of `O=S(=O)(c1ccc(I)cc1)N1CCC2CCc3cc(Cl)ccc3C2=N1` (stereo not shown) [Example 4, 7-Chloro-3,4-diazo-1,2,3,9,10,10a-hexahydro-3-(4-iodobenzenesulfonyl)phenanthrene], the IC50 in test [2] stood at 8.3 nM. In addition, in test [3], the EC50 is 654 nM.

For `Fc1ccc(C(=S)N2CCC3CCCc4ccccc4C3=N2)cc1F` (stereo not shown) [Example 16, 2-(3,4-difluorothiobenzoyl)-3,4,4a,5,6,7-hexahydro-2H-benzo[6,7]cyclohepta[1,2c]pyridazine], the “CP: average increase” value in test [1] is on record as 111.

For the compound `O=C(c1cc(Cl)cc(Cl)c1)N1CCC2CCc3ccccc3C2=N1` (stereo not shown) [Example 11, 3-(3,5-dichlorobenzoyl)-3,4-diazo-1,2,3,9,10,10a-hexahydrophenanthrene], in test [1], the “CP: average increase” value was 113.

Take `O=C(c1cc(Cl)cc(Cl)c1)N1CCC2CCCc3ccccc3C2=N1` (stereo not shown) [Example 7, 2-(3,5-dichlorobenzoyl)-3,4,4a,5,6,7-hexahydro-2H-benzo[6,7]cyclohepta[1,2c]pyridazine]: the “CP: average increase” value in test [1] amounted to 120.

For the compound `O=C(c1ccc(Cl)c(Cl)c1)N1CCC2CCCc3ccccc3C2=N1` (stereo not shown) [Example 9, 2-(3,4-dichlorobenzoyl)-3,4,4a,5,6,7-hexahydro-2H-benzo[6,7]cyclohepta[1,2c]pyridazine], the “CP: average increase” value in test [1] is 123.

Consider `S=C(c1ccc(Cl)c(Cl)c1)N1CCC2CCCc3ccccc3C2=N1` (stereo not shown) [Example 17, 2-(3,4-dichlorothiobenzoyl)-3,4,4a,5,6,7-hexahydro-2H-benzo[6,7]cyclohepta[1,2c]pyridazine], for which the “CP: average increase” value in test [1] is 115.

Take `O=C(c1ccc(Cl)c(Cl)c1)N1CCC2CCc3ccccc3C2=N1` (stereo not shown) [Example 6, 3-(3,4-dichlorobenzoyl)-3,4-diazo-1,2,3,9,10,10a-hexahydrophenanthrene]: the “CP: average increase” value in test [1] was found to be 115.

In the case of `O=S(=O)(c1ccc(I)cc1)N1CCC2CCc3c(Br)cccc3C2=N1` (stereo not shown) [Example 2, 8-Bromo-3,4-diazo-1,2,3,9,10,10a-hexahydro-3-(4-iodobenzenesulfonyl)phenanthrene], the IC50 in test [2] amounted to 10 nM.

`S=C(c1cc(Cl)cc(Cl)c1)N1CCC2CCc3ccccc3C2=N1` (stereo not shown) [Example 20, 3-(3,5-dichlorothiobenzoyl)-3,4-diazo-1,2,3,9,10,10a-hexahydrophenanthrene]: the “CP: average increase” value in test [1] came out at 103.

Turning to `O=S(=O)(c1ccc(I)cc1)N1CCC2CCCc3c(Br)cccc3C2=N1` (stereo not shown) [Example 1, 8-Bromo-3,4,4a,5,6,7-hexahydro-2-(4-iodobenzenesulfonyl)-2H-benzo[6,7]cyclohepta[1,2c]pyridazine], in test [2], the IC50 was found to be 76 nM.

In the case of `O=C(c1ccc(Cl)c(Cl)c1)N1CCC2COc3ccccc3C2=N1` (stereo not shown) [Example 12, 3-(3,4-dichlorobenzoyl)-3,4-diazo-9-oxa-1,2,3,9,10,10a-hexahydrophenanthren], in test [1], the “CP: average increase” value is listed as 107.

In the case of `S=C(c1ccc(Cl)c(Cl)c1)N1CCC2CCc3ccccc3C2=N1` (stereo not shown) [Example 19, 3-(3,4-dichlorothiobenzoyl)-3,4-diazo-1,2,3,9,10,10a-hexahydrophenanthrene], the “CP: average increase” value in test [1] was determined as 87.

On to `O=S(=O)(c1ccc(I)cc1)N1CCC2CCc3c(ccc(Br)c3Br)C2=N1` (stereo not shown) [Example 3, 7,8-Dibromo-3,4-diazo-1,2,3,9,10,10a-hexahydro-3-(4-iodobenzenesulfonyl)phenanthrene], for which, in test [2], the IC50 turned out to be 2.4 nM. Also, the EC (2-fold above control) in test [3] (agonist, printed with + sign, T47D proliferation, 3H-thymidine, read-out: T47D: agonist SC200 (concentration stimulating 2fold above control)) is 0.337 µM.
